According to the SangsterLogP compilation:

Assay: method code SF-HPLC, from DOI: 10.1002/jps.2600740210, PMID: 3989684
Conditions: pH 7.7

In order of rising logD:
1. Nc1ccc2nc(S(N)(=O)=O)sc2c1  0.38
2. NS(=O)(=O)c1nc2ccc(OCCO)cc2s1  0.38
3. CC(=O)Nc1ccc2nc(S(N)(=O)=O)sc2c1  0.68
4. NS(=O)(=O)c1nc2ccc([N+](=O)[O-])cc2s1  0.9
5. NS(=O)(=O)c1nc2ccc(O)cc2s1  0.92
6. NS(=O)(=O)c1nc2ccccc2s1  1.19
7. NS(=O)(=O)c1nc2ccc(Cl)cc2s1  1.86
8. CCOc1ccc2nc(S(N)(=O)=O)sc2c1  1.91
9. NS(=O)(=O)c1nc2c(Cl)cc(Cl)cc2s1  2.3
10. NS(=O)(=O)c1nc2ccc(OCc3ccccc3)cc2s1  3.06
